Reference: patent US12173026B2, “PRMT5 inhibitors” (Merck Sharp & Dohme LLC, priority 2018, dated 2024)
Counter-ions that a name gives are not always drawn.

test system: symmetric dimethylation of arginine (SDMA) of PRMT5 substrates in MCF-7 cells; assay: PRMT5 Cell Target Engagement (TE) Assay; assay type: cell-based; settings: Homo sapiens, MCF7, 72 h; MCF-7 cells treated for 3 days; nuclear SDMA by high content imaging; top concentration 10000 nM
In short: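 MCF-7 cells treated 3 days at 37 °C with 10-point 1:3 titration from 10000 nM top. Fixed cells stained with anti-SDMA antibody plus Alexa488 secondary and Hoechst; nuclear fluorescence quantified by high-content imaging versus DMSO wells. EC50 from 4-parameter fit of percent fluorescence vs log concentration.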

SMILES	EC50 [nM]
Nc1nc2nc(C[C@@H]3CC[C@@]4(O)[C@@H]3O[C@@H](n3ccc5c(N)ncnc53)[C@@H]4O)ccc2cc1Cl [Example 28, (2R,3R,3aS,6S,6aR)-6-(7-amino-6-chloro-1,8-naphthyridin-2-yl)methyl)-2-(4-amino-7H-pyrrolo[2,3-d]pyrimidin-7-yl)hexahydro-3aH-cyclopenta[b]furan-3,3a-diol trihydrochloride]	13
C[C@@]1(O)[C@@H](COc2ccc3cc(Br)c(N)nc3c2)C[C@@H](n2ccc3c(N)ncnc32)[C@@H]1O [Example 2]	0.7
COc1ncnc2c1ccn2[C@@H]1O[C@](C)(COc2ccc3cc(Br)c(N)nc3c2)[C@@H](O)[C@H]1O [Example 12, (2R,3S,4R,5R)-2-(((2-amino-3-bromoquinolin-7-yl)oxy)methyl)-5-(4-methoxy-7H-pyrrolo[2,3-d]pyrimidin-7-yl)-2-methyltetrahydrofuran-3,4-diol]	10000
Nc1nc2cc(C[C@@H]3CC[C@@]4(O)[C@@H]3O[C@@H](n3ccc5c(N)ncnc53)[C@@H]4O)c(F)cc2cc1F [Example 27]	2.8
Nc1nc2c(F)c(C[C@@H]3CC[C@@]4(O)[C@@H]3O[C@@H](n3ccc5c(N)ncnc53)[C@@H]4O)ccc2cc1Cl [Example 26, (2R,3R,3aS,6S,6aR)-6-((2-amino-3-chloro-8-fluoroquinolin-7-yl)methyl)-2-(4-amino-7H-pyrrolo[2,3-d]pyrimidin-7-yl)hexahydro-3aH-cyclopenta[b]furan-3,3a-diol]	4
Cc1ncnc2c1ccn2[C@@H]1O[C@@H]2[C@H](Cc3ccc4cc(C(F)F)c(N)nc4c3)CC[C@]2(O)[C@H]1O [Example 23, (2R,3R,3aS,6S,6aR)-6-((2-amino-3-(difluoromethyl)quinolin-7-yl)methyl)-2-(4-methyl-7H-pyrrolo[2,3-d]pyrimidin-7-yl)hexahydro-3aH-cyclopenta[b]furan-3,3a-diol]	1.5
Cc1ncnc2c1ccn2[C@@H]1O[C@@H]2[C@@H](Oc3ccc4cc(Br)c(N)nc4c3)CC[C@]2(O)[C@H]1O [Example 7, (2R,3R,3aS,6S,6aR)-6-((2-amino-3-bromoquinolin-7-yl)oxy)-2-(4-methyl-7H-pyrrolo[2,3-d]pyrimidin-7-yl)hexahydro-2H-cyclopenta[b]furan-3,3a-diol]	4.8
C[C@]1(CCc2ccc3cc(Br)c(N)nc3c2)C[C@@H](n2ccc3c(N)ncnc32)[C@H](O)[C@@H]1O [Example 15, (1S,2R,3S,5R)-3-[2-(2-amino-3-bromo-7-quinolinyl)ethyl]-5-(4-amino-7H-pyrrolo[2,3-d]pyrimidin-7-yl)-3-methyl-1,2-cyclopentanediol]	0.5
C[C@]1(CCc2ccc3cc(Br)c(N)nc3c2)O[C@@H](n2ccc3c(N)ncnc32)[C@H](O)[C@]1(C)O [Example 4, (2R,3S,4R,5R)-2-(2-(2-amino-3-bromoquinolin-7-yl)ethyl)-5-(4-amino-7H-pyrrolo[2,3-d]pyrimidin-7-yl)-2,3-dimethyltetrahydrofuran-3,4-diol]	186
Nc1nc2c(F)c(C[C@@H]3CC[C@@]4(O)[C@@H]3O[C@@H](n3ccc5c(N)ncnc53)[C@@H]4O)ccc2cc1F [Example 20, (2R,3R,3aS,6S,6aR)-6-[(2-amino-3,8-difluoroquinolin-7-yl)methyl]-2-(4-amino-7H-pyrrolo[2,3-d]pyrimidin-7-yl)hexahydro-3aH-cyclopenta[b]furan-3,3a-diol]	18.6
Cc1ncnc2c1ccn2[C@@H]1C[C@@H]2[C@H](Cc3ccc4cc(F)c(N)nc4c3)CC[C@]2(O)[C@H]1O [Example 16, (1S,2R,3aR,4S,6aR)-4-((2-amino-fluoroquinolin-7-yl)methyl)-2-(4-methyl-7H-pyrrolo[2,3-d]pyrimidin-7-yl)hexahydropentalene-1,6a(1H)-diol]	0.9
Cc1ncnc2c1ccn2[C@@H]1O[C@@H]2[C@H](Cc3ccc4cc(Cl)c(N)nc4c3F)CC[C@]2(O)[C@H]1O [Example 22, (2R,3R,3aS,6S,6aR)-6-[(2-amino-3-chloro-8-fluoroquinolin-7-yl)methyl]-2-(4-methyl-7H-pyrrolo[2,3-d]pyrimidin-7-yl)hexahydro-3aH-cyclopenta[b]furan-3,3a-diol]	30

Results, then the compound that gave them:

EC50 [nM]	SMILES
180	Nc1nc2cc(O[C@H]3CC[C@@]4(O)[C@@H]3C[C@@H](n3ccc5c(N)ncnc53)[C@@H]4O)ccc2cc1Br [Example 119, (1S,2R,3aR,4S,6aR)-4-((2-amino-3-bromoquinolin-7-yl)oxy)-2-(4-amino-7H-pyrrolo[2,3-d]pyrimidin-7-yl)hexahydropentalene-1,6a(1H)-diol 2,2,2-trifluoroacetate]
0.8	Cc1cn([C@@H]2C[C@@H]3[C@H](Cc4cc(F)c5cc(F)c(N)nc5c4)CC[C@]3(O)[C@H]2O)c2ncnc(N)c12 [Example 35, (1S,2R,3aR,4S,6aR)-4-[(2-amino-3,5-difluoroquinolin-7-yl)methyl]-2-(4-amino-5-methyl-7H-pyrrolo[2,3-d]pyrimidin-7-yl)hexahydropentalene-1,6a(1H)-diol]
75.5	Nc1nc2cc(O[C@H]3CC[C@@]4(O)[C@@H]3O[C@@H](n3cc(C5CC5)c5c(N)ncnc53)[C@@H]4O)ccc2cc1Br [Example 52, (2R,3R,3aS,6S,6aR)-6-[(2-amino-3-bromoquinolin-7-yl)oxy]-2-(4-amino-5-cyclopropyl-7H-pyrrolo[2,3-d]pyrimidin-7-yl)hexahydro-3aH-cyclopenta[b]furan-3,3a-diol]
0.9	Cc1cn([C@@H]2O[C@@H]3[C@H](Cc4ccc5cc(Cl)c(N)nc5c4)CC[C@]3(O)[C@H]2O)c2ncnc(N)c12 [Example 66, (2R,3R,3aS,6S,6aR)-6-((2-amino-3-chloroquinolin-7-yl)methyl)-2-(4-amino-5-methyl-7H-pyrrolo[2,3-d]pyrimidin-7-yl)hexahydro-3aH-cyclopenta[b]furan-3,3a-diol]
3.9	Nc1nc2cc(C[C@H]3[C@H]4O[C@@H](n5cc(F)c6c(N)ncnc65)[C@H](O)[C@@]4(O)C[C@@H]3F)ccc2cc1F [Example 55, (2R,3R,3aS,5S,6S,6aR)-2-(4-amino-5-fluoro-7H-pyrrolo[2,3-d]pyrimidin-7-yl)-6-[(2-amino-3-fluoroquinolin-7-yl)methyl]-5-fluorohexahydro-3aH-cyclopenta[b]furan-3,3a-diol,2,2,2-trifluoroethanol]
0.7	Cc1cn([C@@H]2C[C@@H]3[C@H](Cc4ccc5cc(Br)c(N)nc5c4)CC[C@]3(O)[C@H]2O)c2ncnc(N)c12 [Example 40, (1S,2R,3aR,4S,6aR)-4-((2-amino-3-bromoquinolin-7-yl)methyl)-2-(4-amino-5-methyl-7H-pyrrolo[2,3-d]pyrimidin-7-yl)hexahydropentalene-1,6a(1H)-diol]
41.1	CC(C)c1ncnc2c1ccn2[C@@H]1O[C@@H]2[C@H](Cc3ccc4cc(Br)c(N)nc4c3)CC[C@]2(O)[C@H]1O [Example 83, (2R,3R,3aS,6S,6aR)-6-((2-amino-3-bromoquinolin-7-yl)methyl)-2-(4-isopropyl-7H-pyrrolo[2,3-d]pyrimidin-7-yl)hexahydro-3aH-cyclopenta[b]furan-3,3a-diol]
8.8	Cc1nc(N)c2c(F)cn([C@@H]3O[C@@H]4[C@H](Cc5ccc6cc(F)c(N)nc6c5)CC[C@]4(O)[C@H]3O)c2n1 [Example 44, (2R,3R,3aS,6S,6aR)-6-((2-amino-3-fluoroquinolin-7-yl)methyl)-2-(4-amino-5-fluoro-2-methyl-7H-pyrrolo[2,3-d]pyrimidin-7-yl)hexahydro-3aH-cyclopenta[b]furan-3,3a-diol 2,2,2-trifluoroacetate]
4.4	Cc1nc(N)nc2c1ccn2[C@@H]1O[C@@H]2[C@@H](Oc3ccc4cc(Br)c(N)nc4c3)CC[C@]2(O)[C@H]1O [Example 114, (2R,3R,3aS,6S,6aR)-6-((2-amino-3-bromoquinolin-7-yl)oxy)-2-(2-amino-4-methyl-7H-pyrrolo[2,3-d]pyrimidin-7-yl)hexahydro-3aH-cyclopenta[b]furan-3,3a-diol]
15.5	Nc1nc2cc(O[C@H]3CC[C@@]4(O)[C@@H]3O[C@@H](n3ccc5c(N)ncnc53)[C@@H]4O)ccc2cc1C(F)F [Example 128, (2R,3R,3aS,6S,6aR)-6-((2-amino-3-(difluoromethyl)quinolin-7-yl)oxy)-2-(4-amino-7H-pyrrolo[2,3-d]pyrimidin-7-yl)hexahydro-3aH-cyclopenta[b]furan-3,3a-diol]
1.2	Nc1nc2cc(O[C@H]3CC[C@@]4(O)[C@@H]3O[C@@H](n3cc(F)c5c(N)ncnc53)[C@@H]4O)ccc2cc1Br [Example 56, (2R,3R,3aS,6S,6aR)-6-((2-amino-3-bromoquinolin-7-yl)oxy)-2-(4-amino-5-fluoro-7H-pyrrolo[2,3-d]pyrimidin-7-yl)hexahydro-3aH-cyclopenta[b]furan-3,3a-diol]
7	Nc1ccc2ccc(O[C@H]3CC[C@@]4(O)[C@@H]3O[C@@H](n3ccc5c(N)ncnc53)[C@@H]4O)cc2n1 [Example 104, (2R,3R,3aS,6S,6aR)-2-(4-amino-7H-pyrrolo[2,3-d]pyrimidin-7-yl)-6-((2-aminoquinolin-7-yl)oxy)hexahydro-2H-cyclopenta[b]furan-3,3a-diol]
103	C[C@]1(O)[C@@H](O)[C@H](n2ccc3c(N)ncnc32)C[C@]1(O)CCc1ccc2cc(Br)c(N)nc2c1 [Example 118, (1R,2S,3S,4R)-1-(2-(2-amino-3-bromoquinolin-7-yl)ethyl)-4-(4-amino-7H-pyrrolo[2,3-d]pyrimidin-7-yl)-2-methylcyclopentane-1,2,3-triol]
4.4	Cc1ncnc2c1ccn2[C@@H]1O[C@@H]2[C@@H](Oc3ccc4cc5c(nc4c3)NCC5)CC[C@]2(O)[C@H]1O [Example 89, (2R,3R,3aS,6S,6aR)-6-((2,3-dihydro-1H-pyrrolo[2,3-b]quinolin-7-yl)oxy)-2-(4-methyl-7H-pyrrolo[2,3-d]pyrimidin-7-yl)hexahydro-3aH-cyclopenta[b]furan-3,3a-diol]
